SMILES strings stand for the structures. pIC50: −log10 of the molar value. ≈ marks a conversion by molar mass, not a printed value. Entries after “also recorded” stand apart in the source; their conditions may differ. A value given as a limit tells only on which side of the number the result lay.

Consider 2 compounds from patent publication US20230416203A1, “POTENT AND SELECTIVE INHIBITORS OF THE CALCIUM-ACTIVATED POTASSIUM CHANNEL, KCA3.1, FOR USE AS PLATFORM THERAPEUTICS” (priority 2020, published 2023).

Data set [1] is described as follows: Plasma protein binding assay (equilibrium dialysis), human plasma. The format is in vitro ADME. The following applies: pH 7.4. How it is done: (§1) Human and mouse plasma (150 μL) containing test compound (3 μM, final concentration) and sodium phosphate buffer (150 μL, 100 mM, pH 7.4) were added to the equilibrium dialysis device and equilibrated at 37° C. for 4.5 h with constant shaking. After equilibration, 10 μL of the plasma was taken out from the first half of the well and mixed with 50 μL of blank buffer, and later quenched with 200 μL of 0.05% formic acid in ACN containing 100 ng/mL of Loperamide, Phenacetin & Tolbutamide as internal standards. Similarly, 50 μL of […] was taken from the second half of the well and mixed with 10 μL of blank […] before quenching. […] All samples were centrifuged at 14,000 rpm for 5 min at 4° C. Warfarin and naltrexone were used as positive controls. Supernatant of all samples were analyzed by LC-MS/MS.

Data set [2] is described as follows: Plasma protein binding assay (equilibrium dialysis), mouse plasma. The format is in vitro ADME. The note with it: pH 7.4. How it is done: as §1
Data set [3] addresses T1, KCa2.3 (Homo sapiens, UniProt Q9UGI6).
T1 construct: expressed in transfected cells; host or cells: COS7
Nature of the data set: Potassium channels patch-clamp (QPatch), KCa2.3. The data set is classed as cell-based. How it is done: The effects of Group 4 compounds on related potassium channels were evaluated by patch-clamp using a QPatch HTX automated electrophysiology platform (Sophion, Denmark). The giga-seal and whole-cell requirements for the automated electrophysiology were the following: minimum seal resistance=0.1 GO, holding potential=−80 mV, holding pressure=−20 mbar; and positioning pressure=−70 mbar.

Data set [4] can be described thus: Solubility test (PBS, HPLC-UV). The data set is classed as physicochemical. The note with it: kinetic from dmso stock. The procedure:
Calibration standards at 1, 5, 10, 50, 100, 200 and 300 μM were prepared in DMSO from a 20 mM stock. […] The plate was covered and shook at 150 rotations per min for 90 min. At the end of 90 min, samples were filtered using MultiScreen HTS vacuum Manifold assembly and the filtrate was collected onto the acceptor plate. An aliquot (150 μL) of the filtrate from the above 96-well acceptor plate was transferred into HPLC vials and analyzed by HPLC-UV. Verapamil, ketoconazole and reserpine were used as high, medium and low soluble reference standards respectively.

In data set [5] the test system is middle cerebral artery occlusion (MCAO). Nature of the data set: MCAO ischemia-reperfusion model, infarct volume (TTC staining). The format is in vivo, SD male rats.
Data set [6] can be described thus: Plasma and brain distribution studies.
Method: The dosing volume for intraperitoneal administration was 5 mL/kg. Following blood collection, the animals were sacrificed, and their abdominal vena-cava were cut open and whole body were perfused from heart using 10 mL normal saline. The brain samples were collected from a set of three mice at 0.08, 0.25, 0.5, 1, 2, 4, 8 and 10 h. After isolation, the brain samples were rinsed thrice in ice cold normal saline (for 5-10 s/rinse using ˜10-20 mL normal saline in disposable petri dish for each rinse) and dried on blotting paper. The brain samples were homogenized using ice-cold phosphate buffer saline (pH=7.4). The total homogenate volume was three times the tissue weight. All homogenates were stored below −70° C. until bioanalysis. […] Non-Compartmental-Analysis tool of Phoenix WinNonlin® (Version 8.0) was used to assess the pharmacokinetic parameters.
Where [7] appears, read: male, C57BL/6, mouse, brain, ip, 50 mg/kg.
[8] abbreviates: male, C57BL/6, mouse, plasma, ip, 50 mg/kg.

T1 sequence (Q9UGI6 whole entry): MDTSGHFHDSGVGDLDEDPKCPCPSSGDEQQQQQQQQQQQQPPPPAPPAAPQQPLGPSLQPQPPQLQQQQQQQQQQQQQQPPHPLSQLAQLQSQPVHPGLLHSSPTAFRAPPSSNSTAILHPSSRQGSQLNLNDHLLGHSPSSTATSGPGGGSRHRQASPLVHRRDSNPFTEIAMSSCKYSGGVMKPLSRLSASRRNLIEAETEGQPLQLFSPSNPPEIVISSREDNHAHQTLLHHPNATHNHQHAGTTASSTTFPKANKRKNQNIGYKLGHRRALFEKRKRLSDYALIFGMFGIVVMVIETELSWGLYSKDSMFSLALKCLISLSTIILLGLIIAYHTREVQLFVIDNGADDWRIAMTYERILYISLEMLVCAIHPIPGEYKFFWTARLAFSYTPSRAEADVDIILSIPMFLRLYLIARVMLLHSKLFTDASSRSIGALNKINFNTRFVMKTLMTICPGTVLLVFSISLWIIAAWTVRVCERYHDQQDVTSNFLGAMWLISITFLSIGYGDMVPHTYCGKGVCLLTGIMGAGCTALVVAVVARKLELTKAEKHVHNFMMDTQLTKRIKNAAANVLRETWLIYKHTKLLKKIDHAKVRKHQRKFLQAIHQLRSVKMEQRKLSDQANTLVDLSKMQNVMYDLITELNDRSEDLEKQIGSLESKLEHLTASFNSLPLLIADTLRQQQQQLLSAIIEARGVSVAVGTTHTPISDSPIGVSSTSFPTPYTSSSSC

In the case of `COC(=O)C1=C(C)NC(C)=C(C(=O)OC)C1c1ccc(F)c(C(F)(F)F)c1` [Compound 101], the unbound share (fraction unbound) at 4.5 h, 3 μM in data set [1] is 0.0073; in data set [2], 0.0088. Besides, in data set [3], the negative logarithm of the IC50 (pIC50) is 5.10.
Turning to `COC(=O)C1=CNC=C(C(=O)OC)C1c1ccc(F)c(C(F)(F)F)c1` [Compound 103, Dimethyl 4-(4-fluoro-3-(trifluoromethyl)phenyl)-1,4-dihydropyridine-3,5-dicarboxylate], the solubility at 90 min in data set [4] (pH 1.5, aqueous buffer, PBS pH 1.5) came out at 54.6 µM (≈ 19.6 µg/mL). The same compound registered a solubility at 90 min in data set [4] (pH 5, aqueous buffer, PBS pH 5.0) of 58.1 µM (≈ 20.9 µg/mL). For the same compound, in data set [4] (pH 7.4, aqueous buffer, PBS pH 7.4), the solubility at 90 min was not above 87.4 µM. Further, the “reduction of infarct volume” value in data set [5] (10 mg/kg intraperitoneal twice daily, 7 days, rat MCAO) is listed as approximately 50%. For the same compound, the infarct volume result in data set [5] (rat MCAO 60 min, 7 days reperfusion, vs vehicle and Edaravone 5 mg/kg) was “more effective than Edaravone; also recorded: effectively reduced infarct volume”. In addition, the AUClast in data set [6] (Brain, IP 50 mg/kg, mice) was 88658.12 ng·h/g. Further, in data set [6] (setting [7]), the peak concentration (Cmax) was 26800 ng/g, the MRT last came out at 2.09 h, the Tmax worked out at 0.25 h and the half-life is 1.06 h. In data set [6] (setting [8]), the exposure AUC(0-t) amounted to 20000 ng·h/mL, the Cmax was found to be 8540 ng/mL, the mean residence time (MRT last) was determined as 2.02 h and the time of peak concentration (Tmax) is 0.25 h. In data set [6] (setting [8]), this compound gave a half-life of 1.63 h.
